How the values were obtained:
BTK = BTK (Homo sapiens (Human), UniProt Q06187); test: BTK inhibitory activity; type: biochemical
BCWM.1 = test: CellTiter-Glo Luminescent cell viability assay; type: cell-based; details: cell survival, 72 hours
Description: (§1) The inhibitory activities of exemplary compounds described herein against select protein kinases and cells were determined. Cell survival following treatment of exemplary compounds described herein was assessed by CellTiter-Glo® Luminescent cell viability assay (Promega). The cells were seeded into 384 well plates with the EL406 Combination Washer Dispenser (BioTek Instruments, Inc.), and a series diluted exemplary compounds (20˜0.0006 μM) were injected into the culture media with the JANUS Automated Workstation (PerkinElmer Inc.). The cells were treated for 72 hours at 37° C. with 5% CO2. Luminescent measurement is performed using the 2104 Envision® Multilabel Reader (PerkinElmer Inc.). EC50 values were calculated with […] PRISM software.

HBL-1 = test: CellTiter-Glo Luminescent cell viability assay; type: cell-based; details: cell survival, 72 hours
Description: as §1

MWCL-1 = test: CellTiter-Glo Luminescent cell viability assay; type: cell-based; details: cell survival, 72 hours
Description: as §1

OCI-Ly19 = test: CellTiter-Glo Luminescent cell viability assay; type: cell-based; details: cell survival, 72 hours
Description: as §1

Ramos = test: CellTiter-Glo Luminescent cell viability assay; type: cell-based; details: cell survival, 72 hours
Description: as §1

TMD-8 = test: CellTiter-Glo Luminescent cell viability assay; type: cell-based; details: cell survival, 72 hours
Description: as §1

OCI-Ly3 = test: CellTiter-Glo Luminescent cell viability assay; type: cell-based; details: cell survival, 72 hours
Description: as §1

OCI-Ly7 = test: CellTiter-Glo Luminescent cell viability assay; type: cell-based; details: cell survival, 72 hours
Description: as §1

OPM-2 = test: CellTiter-Glo Luminescent cell viability assay; type: cell-based; details: Homo sapiens, cell survival, 72 hours
Description: as §1

RPMI-8226 = test: CellTiter-Glo Luminescent cell viability assay; type: cell-based; details: Homo sapiens, cell survival, 72 hours
Description: as §1

HCK = HCK (Homo sapiens (Human), UniProt P08631); test: HCK inhibitory activity; type: biochemical
Chain of HCK (P08631 whole entry): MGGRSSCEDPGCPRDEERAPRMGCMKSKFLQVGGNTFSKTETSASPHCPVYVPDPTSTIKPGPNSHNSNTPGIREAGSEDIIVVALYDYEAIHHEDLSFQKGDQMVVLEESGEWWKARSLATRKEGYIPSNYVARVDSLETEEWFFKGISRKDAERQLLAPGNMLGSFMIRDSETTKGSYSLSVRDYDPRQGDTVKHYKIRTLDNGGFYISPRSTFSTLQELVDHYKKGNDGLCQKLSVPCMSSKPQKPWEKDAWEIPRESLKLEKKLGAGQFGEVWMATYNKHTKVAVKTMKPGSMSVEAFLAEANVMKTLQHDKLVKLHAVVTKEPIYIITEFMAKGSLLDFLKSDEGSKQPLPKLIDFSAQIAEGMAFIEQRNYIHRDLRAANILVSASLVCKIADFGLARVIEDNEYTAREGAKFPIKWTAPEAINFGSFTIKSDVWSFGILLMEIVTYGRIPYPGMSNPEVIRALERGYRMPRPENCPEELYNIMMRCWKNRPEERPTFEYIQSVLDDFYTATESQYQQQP

Chain of BTK (Q06187 whole entry, looked up): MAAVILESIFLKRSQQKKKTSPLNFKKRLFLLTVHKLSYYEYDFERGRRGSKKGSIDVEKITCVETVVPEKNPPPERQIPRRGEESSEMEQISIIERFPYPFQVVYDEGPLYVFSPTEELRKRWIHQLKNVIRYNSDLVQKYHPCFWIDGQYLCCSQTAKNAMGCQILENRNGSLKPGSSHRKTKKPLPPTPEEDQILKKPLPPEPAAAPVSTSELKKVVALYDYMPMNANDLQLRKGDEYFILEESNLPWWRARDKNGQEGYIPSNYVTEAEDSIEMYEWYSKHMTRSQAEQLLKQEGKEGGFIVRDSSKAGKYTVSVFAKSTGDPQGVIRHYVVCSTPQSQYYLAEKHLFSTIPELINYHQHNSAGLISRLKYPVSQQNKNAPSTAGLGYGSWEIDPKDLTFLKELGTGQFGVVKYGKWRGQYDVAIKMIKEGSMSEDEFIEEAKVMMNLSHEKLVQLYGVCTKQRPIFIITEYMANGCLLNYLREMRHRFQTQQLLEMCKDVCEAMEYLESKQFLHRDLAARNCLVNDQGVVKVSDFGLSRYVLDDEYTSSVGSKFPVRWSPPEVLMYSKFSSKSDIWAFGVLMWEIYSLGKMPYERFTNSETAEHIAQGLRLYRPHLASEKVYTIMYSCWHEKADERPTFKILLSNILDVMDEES

Compound | IC50 (BTK) [nM] | EC50 (BCWM.1) [nM] | EC50 (HBL-1) [nM] | EC50 (MWCL-1) [nM] | EC50 (OCI-Ly19) [nM] | EC50 (Ramos) [nM] | EC50 (TMD-8) [nM] | EC50 (BCWM.1; BCWM1) [nM] | EC50 (HBL-1; HBL1) [nM] | EC50 (OCI-Ly19; Homo sapiens, OCI-LY19) [nM] | EC50 (OCI-Ly3; Homo sapiens, OCI-Ly3) [nM] | EC50 (OCI-Ly7; Homo sapiens, OCI-Ly7) [nM] | EC50 (OPM-2) [nM] | EC50 (RPMI-8226) [nM] | EC50 (Ramos; Homo sapiens, Ramos) [nM] | EC50 (TMD-8; Homo sapiens, TMD8) [nM] | IC50 (HCK) [nM] | EC50 (OCI-Ly7) [nM] | EC50 (OCI-Ly3) [nM]
C=CC(=O)N1CC[C@@H](Nc2nccc(Nc3ncc(C(=O)Nc4c(C)cccc4C)s3)n2)C1 [Compound I-4] | 1.38 | 53 | 449 | 85 | 4270 | > 20000 | 315 |  |  |  |  |  |  |  |  |  |  |  | 
Cc1nc(Nc2ncc(C(=O)Nc3c(C)cccc3Cl)s2)cc(N2CCN(CCO)CC2)n1 [Dasatinib, dasatinib, reference compound] |  |  |  | 7.41 |  |  |  | 1.2 | 190 | 3860 | 8060 | 155 | 7110 | 5390 | 4560 | 18.7 |  |  | 
c1ccc(Oc2ccc3nc(Nc4cnn(C5CCOCC5)c4)sc3n2)cc1 [III-8] | > 10000 | 7250 | > 20000 | > 20000 | 12600 | > 20000 | 14600 |  |  |  |  |  |  |  |  |  | > 10000 |  | 
C=CC(=O)N1CCC[C@@H](Nc2nccc(Nc3ncc(C(=O)Nc4c(C)cccc4C)s3)n2)C1 [Compound I-6] | 1.9 | 69.6 | 229 | 93.7 |  |  | 80.2 |  |  |  |  |  |  |  |  |  |  | 520 | 
C=CC(=O)N1CC[C@H](Nc2nc(CN3CCOCC3)cc(Nc3ncc(C(=O)Nc4c(C)cccc4Cl)s3)n2)C1 [Compound I-1] | 1.61 | 73.4 | 522 | 50 |  |  | 301 |  |  |  |  |  |  |  |  |  |  |  | 
C=CC(=O)N1CCC(CNc2nccc(Nc3ncc(C(=O)Nc4c(C)cccc4C)s3)n2)C1 (stereo not drawn) [Compound I-8] | < 0.495 | 75 | 522 | 103 | 3770 | 7970 | 301 |  |  |  |  |  |  |  |  |  | < 0.495 |  | 
C=CC(=O)N1CCC[C@H](Nc2nccc(Nc3nc4ccc(Oc5ccccc5)nc4s3)n2)C1 [III-3] | 19.4 | 2710 | 2960 | 5750 | 2500 | 8460 | 4130 |  |  |  |  |  |  |  |  |  |  |  | 
C=CC(=O)N1CC[C@H](Nc2nc(CN3CCOCC3)cc(Nc3ncc(C(=O)Nc4c(C)cccc4C)s3)n2)C1 [Compound I-2] | 1.63 | 41 | 1670 | 67 | > 20000 | > 20000 | 311 |  |  |  |  |  |  |  |  |  |  |  | > 20000
C=CC(=O)N1CC[C@@H](Nc2nccc(Nc3nc4ccc(Oc5ccccc5)nc4s3)n2)C1 [III-2] | 281 | 916 | 2960 | 1350 | 1100 | 2300 | 2640 |  |  |  |  |  |  |  |  |  |  |  | 
CCC(=O)N1CC[C@H](Nc2nccc(Nc3ncc(C(=O)Nc4c(C)cccc4C)s3)n2)C1 [Compound I-9] | 0.5 | 9.84 | 220 | 25 | 10000 | > 20000 | 70.9 |  |  |  |  |  |  |  |  |  | < 0.495 |  | 14500
C=CC(=O)N1CC[C@H](Nc2nccc(Nc3ncc(C(=O)Nc4c(C)cccc4C)s3)n2)C1 [Compound I-3] | 0.6 | 19.3 | 669 | 55.2 | 13000 | > 20000 | 158 |  |  |  |  |  |  |  |  |  |  | 370 | 39500
C=CC(=O)N1CCCCC(Nc2nccc(Nc3ncc(C(=O)Nc4c(C)cccc4C)s3)n2)C1 (stereo not drawn) [Compound I-7] | < 0.495 | 22 | 70 | 19 | 399 | 133 | 49 |  |  |  |  |  |  |  |  |  | < 0.495 |  | 
C=CC(=O)N1CCCCC(Nc2nccc(Nc3nc4ccc(Oc5ccccc5)nc4s3)n2)C1 (stereo not drawn) [III-5] | 9.06 | 1190 | 896 | 3370 | 1330 | 2720 | 1230 |  |  |  |  |  |  |  |  |  |  |  | 
C=CC(=O)N1CC[C@H](Nc2nccc(Nc3nc4ccc(Oc5ccccc5)nc4s3)n2)C1 [III-1] | 86.6 | 1830 | 3200 | 4080 | 1250 | 3700 | 3850 |  |  |  |  |  |  |  |  |  |  |  | 
C=CC(=O)N1CCCC(Nc2nc(CN3CCOCC3)cc(Nc3ncc(C(=O)Nc4c(C)cccc4C)s3)n2)C1 (stereo not drawn) [Compound I-12] |  | 75.5 | 1200 | 317 |  |  | 453 |  |  |  |  |  |  |  |  |  |  | 309 | 
Cn1cc(Nc2nc3ccc(Oc4ccccc4)nc3s2)cn1 [III-7] | > 10000 | > 20000 | > 20000 | > 20000 | 9520 | > 20000 | > 20000 |  |  |  |  |  |  |  |  |  | > 10000 |  | 
C=CC(=O)N1CC[C@H](Nc2nccc(Nc3ncc(C(=O)Nc4c(C)cccc4Cl)s3)n2)C1 [Compound I-10] | 1.74 | 170 | 1640 | 191 | 5700 | 12 | 1010 |  |  |  |  |  |  |  |  |  |  |  | 
C=CC(=O)N1CCCC(Cn2ccc(Nc3ncc(C(=O)Nc4c(C)cccc4Cl)s3)n2)C1 (stereo not drawn) [II-2] | < 0.495 | 196 | 1000 | 166 | 6540 | > 20000 | 929 |  |  |  |  |  |  |  |  |  |  |  | 
c1ccc(Oc2ccc3nc(Nc4cnn(C5CCNCC5)c4)sc3n2)cc1 [III-9] | 2660 | 8290 | > 20000 | 16600 | 7060 | 11800 | 18300 |  |  |  |  |  |  |  |  |  |  |  | 
C=CC(=O)N1CCCCC(Nc2nccc(Nc3ncc(C(=O)Nc4c(C)cccc4Cl)s3)n2)C1 (stereo not drawn) [Compound I-11] | 5.52 | 129 | 623 | 245 | 3680 | 1580 | 500 |  |  |  |  |  |  |  |  |  |  |  | 
C=CC(=O)N1CCC[C@@H](Nc2nccc(Nc3nc4ccc(Oc5ccccc5)nc4s3)n2)C1 [III-4] | 367 | 808 | 2550 | 2160 | 1170 | 2190 | 2120 |  |  |  |  |  |  |  |  |  |  |  | 
Cn1ccc(Nc2nc3ccc(Oc4ccccc4)nc3s2)n1 [III-6] | 2580 | 270 | 450 | 2170 | 321 | 749 | 467 |  |  |  |  |  |  |  |  |  |  |  | 
C=CC(=O)N1CCC(n2cc(Nc3ncc(C(=O)Nc4c(C)cccc4Cl)s3)cn2)CC1 [II-3] | 19.9 | 690 | 3650 | 772 | 9970 | > 20000 | 2540 |  |  |  |  |  |  |  |  |  |  |  | 

Reference: US10844077B2, “Thiazolyl-containing compounds for treating proliferative diseases” (Dana-Farber Cancer Institute, Inc., priority 2014, dated 2020)
